pEC50, pIC50, pKi: −log10 of the molar value. Where two headings read alike, the source gives them in different places.
Experiments:
[1] = tested on: 30N82I88D; parameters: species or system HIV-1; conditions: MT-4, 30N82I88D; read-out: Cell-based assay (MT-4) EC50/nM 30N82I88D
[2] = biological target: recombinant HIV-1 protease (Human immunodeficiency virus type 1 group M subtype B, UniProt P04585); experiment: biochemical; type: biochemical; conditions: for IC50: read-out: Enzymatic assay WT IC50/nM
[3] = tested on: 48V54V82A; parameters: species or system HIV-1; conditions: MT-4, 48V54V82A; read-out: Cell-based assay (MT-4) EC50/nM 48V54V82A
[4] = tested on: mutant HIV-1 with I84V/L90M mutations in the protease gene; type: cell-based; conditions: MT-4, 84V90M; read-out: Cell-based assay (MT-4) EC50/nM 84V90M
[5] = tested on: 46I50V; parameters: species or system HIV-1; conditions: MT-4, 46I50V; read-out: Cell-based assay (MT-4) EC50/nM 46I50V
[6] = biological target: T1, 84V90M (Human immunodeficiency virus type 1 group M subtype B, UniProt P04585, I572V/L578M); experiment: Enzymatic assay, IC50 against 84V90M mutant protease; type: biochemical, HIV-1
[7] = tested on: WT HIV-1; experiment: microbe, parasite or virus in culture; type: cell-based
[8] = biological target: T2, GS-7340 Ester Hydrolase (Homo sapiens, UniProt P10619); experiment: biochemical
T2 construct: from tissue; host or cells: human peripheral blood mononuclear cells (extract and column pools)

[9] = tested on: WT; experiment: microbe, parasite or virus in culture; type: cell-based, HIV-1; conditions: Human immunodeficiency virus 1, read-out: Cell-based assay (MT-4) EC50 WT
[10] = tested on: 48V54V82S; experiment: microbe, parasite or virus in culture; parameters: species or system HIV-1; conditions: Human immunodeficiency virus 1, read-out: Cell-based assay (MT-4) EC50 48V54V82S
[11] = tested on: 46I50V; experiment: microbe, parasite or virus in culture; type: cell-based, HIV-1; conditions: Human immunodeficiency virus 1, read-out: Cell-based assay (MT-4) EC50 46I50V
[12] = tested on: 30N82I88D; experiment: microbe, parasite or virus in culture; type: cell-based, HIV-1; conditions: Human immunodeficiency virus 1, read-out: Cell-based assay (MT-4) EC50 30N82I88D
[13] = biological target: T1, 84V90M; experiment: biochemical; parameters: species or system HIV-1
[14] = tested on: 48V82A90M; experiment: microbe, parasite or virus in culture; parameters: species or system HIV-1; conditions: Human immunodeficiency virus 1, read-out: Cell-based assay (MT-4) EC50 48V82A90M
[15] = biological target: T1, 84V90M; experiment: cell-based; parameters: species or system HIV-1
[16] = tested on: 48V54V82A; experiment: microbe, parasite or virus in culture; type: cell-based, HIV-1; conditions: Human immunodeficiency virus 1, read-out: Cell-based assay (MT-4) EC50 48V54V82A
[17] = tested on: MT-2 cells
[18] = tested on: MT-2 cells; remark: listed apart in the source
[19] = tested on: Quiescent PBMC
[20] = tested on: PBMC in intact human whole blood
[21] = tested on: recombinant HIV-1 strains with resistance mutations in the protease gene; experiment: Cross-resistance profile assay, whole panel of mutant viruses; type: cell-based
[22] = tested on: recombinant HIV-1 strain, protease 10F/46I/71V/82T/90M
[23] = tested on: recombinant HIV-1 strain, protease 10R/46I/82T/84V
[24] = tested on: recombinant HIV-1 strain, protease 10I/48V/71V/82A/90M
[25] = tested on: recombinant HIV-1 strain, protease 48V/54V/71V/82S
[26] = tested on: recombinant HIV-1 strain, protease 46I/84A
[27] = tested on: recombinant HIV-1 strain, protease 10I/84V/71V/73S/90M
[28] = tested on: recombinant HIV-1 strain, protease 46I/47V/50V
[29] = tested on: 48V82A90M; parameters: species or system HIV-1; conditions: MT-4, 48V82A90M; read-out: Cell-based assay (MT-4) EC50/nM 48V82A90M
[30] = tested on: 48V54V82S; parameters: species or system HIV-1; conditions: MT-4, 48V54V82S; read-out: Cell-based assay (MT-4) EC50/nM 48V54V82S
[31] = tested on: wild-type HIV-1 strain IIIB; experiment: microbe, parasite or virus in culture; type: cell-based; conditions: read-out: EC50
[32] = MT-4, WT, read-out: Cell-based assay (MT-4) EC50/nM WT

T2 sequence (P10619 29-326 limits assumed): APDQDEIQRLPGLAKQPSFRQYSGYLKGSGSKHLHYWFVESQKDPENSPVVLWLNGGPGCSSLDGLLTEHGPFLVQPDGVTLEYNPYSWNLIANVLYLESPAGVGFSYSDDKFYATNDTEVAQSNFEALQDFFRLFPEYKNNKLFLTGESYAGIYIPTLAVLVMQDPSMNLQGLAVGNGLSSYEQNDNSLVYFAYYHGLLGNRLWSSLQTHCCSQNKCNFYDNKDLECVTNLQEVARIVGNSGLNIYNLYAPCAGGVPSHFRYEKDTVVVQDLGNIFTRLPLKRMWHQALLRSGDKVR
T2 sequence (P10619 327-480 limits assumed): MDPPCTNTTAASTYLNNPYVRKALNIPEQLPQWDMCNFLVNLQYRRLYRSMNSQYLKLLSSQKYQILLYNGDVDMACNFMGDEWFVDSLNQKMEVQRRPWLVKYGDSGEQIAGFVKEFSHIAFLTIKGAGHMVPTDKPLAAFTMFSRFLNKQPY

Structure (SMILES): O=C1N(Cc2ccccc2)[C@H](Cc2ccccc2)[C@H](O)[C@@H](O)[C@@H](Cc2ccccc2)N1Cc1ccc2[nH]nc(O)c2c1
- EC50 [1]: 869 nM
- pKi ([2]; read-out: Enzymatic assay Ki): 9.38
- IC50 [2]: 6.6 nM
- EC50 [3]: 774 nM
- EC50 [4]: > 600 nM
- EC50 [5]: 937 nM
- IC50 [6]: 85 nM
- EC50 [7, 32]: 1230 nM

Structure (SMILES): O=c1oc(Cl)c(Cl)c2ccccc12 [3,4-DCI, 3,4 dichloroisocoumarin, reference compound]
- pIC50 [8]: 5.40

Structure (SMILES): CCCCN1C(=O)N(Cc2ccc3[nH]nc(N)c3c2)C(Cc2ccccc2)C(O)C(O)C1Cc1ccccc1 (stereo not drawn) [CH3 (DMP-851)]
- pEC50 [9]: 7.27
- pEC50 [10]: 7.52
- pEC50 [11]: 7.77
- pEC50 [12]: 7.16
- pIC50 [13]: 8.03
- pEC50 [14]: 7.66
- pEC50 [15]: 6.04
- pEC50 [16]: 7.48

Structure (SMILES): CCOP(=O)(COc1ccc(C[C@H](NC(=O)O[C@H]2CO[C@H]3OCC[C@H]32)[C@H](O)CN(CC(C)C)S(=O)(=O)c2ccc(OC)cc2)cc1)OCC [Compound 13]
- CC50 [17]: 50000 nM

Structure (SMILES): CCCCOC(=O)C(C)NP(=O)(COc1ccc(CC(NC(=O)OC2COC3OCCC23)C(O)CN(CC(C)C)S(=O)(=O)c2ccc(OC)cc2)cc1)NC(C)C(=O)OCCCC (stereo not drawn) [GS-16503]
- Metabolism (conversion to acid metabolites), increase at 1 μM vs. 10 μM [18]: 3 fold
- Cell-Associated PI, pmol/mln cells: Prodrug [19]: 0 pmol/mln cells
- Intracellular Acid Metabolite Concentration [20]: 279 ± 47 µM
- Intracellular Prodrug Concentration [20]: 61 ± 40 µM
- Intracellular Prodrug and Metabolites Concentration, uM: Acid Metabolite [20]: 279 ± 47 µM
- Intracellular Prodrug and Metabolites Concentration: Prodrug [20]: 61 ± 40 µM
- Intracellular Prodrug and Metabolites Concentration: Total [20]: 340 ± 35 µM
- Total No. of Resistant Viruses ([21]; of 11 mutant viruses, resistance = 5-fold and higher change in EC50 relative to wild-type): 0

Structure (SMILES): CCOC(=O)C(C)OP(=O)(COc1ccc(C[C@H](NC(=O)O[C@H]2CO[C@H]3OCC[C@H]32)[C@H](O)CN(CC(C)C)S(=O)(=O)c2ccc(OC)cc2)cc1)Oc1ccccc1 (stereo partly drawn) [GS-17394]
- Metabolism (conversion to acid metabolites), increase at 1 μM vs. 10 μM [18]: independent
- Cell-Associated PI, pmol/mln cells: Prodrug [19]: 0 pmol/mln cells
- Intracellular Acid Metabolite Concentration [20]: 629 ± 303 µM
- Intracellular Prodrug Concentration [20]: 69 ± 85 µM
- Intracellular Prodrug and Metabolites Concentration, uM: Acid Metabolite [20]: 629 ± 303 µM
- Intracellular Prodrug and Metabolites Concentration: Prodrug [20]: 69 ± 85 µM
- Intracellular Prodrug and Metabolites Concentration: Total [20]: 698 ± 301 µM

Structure (SMILES): Cc1cccc(C)c1OCC(=O)N[C@@H](Cc1ccccc1)[C@@H](O)C[C@H](Cc1ccccc1)NC(=O)[C@H](C(C)C)N1CCCNC1=O [Lopinavir]
- Fold Change in EC50 Relative to WT HIV-1 [22]: 7.5
- Fold Change in EC50 Relative to WT HIV-1 [23]: 11
- Fold Change in EC50 Relative to WT HIV-1 [24]: 4.5
- Fold Change in EC50 Relative to WT HIV-1 [25]: 60
- Fold Change in EC50 Relative to WT HIV-1 [26]: 9
- Total No. of Resistant Viruses ([21]; {}): 6
- Fold Change in EC50 Relative to WT HIV-1 [27]: 11
- EC50 ([7]; Human immunodeficiency virus 1, read-out: EC50 [nM] WT HIV-1): 8 nM
- Fold Change in EC50 Relative to WT HIV-1 [28]: 19

Structure (SMILES): CCOP(=O)(COc1ccc(CC2C(O)C(O)C(Cc3ccc(OC)cc3)N(Cc3ccc(O)cc3)C(=O)N2Cc2ccc(O)cc2)cc1)OCC (stereo not drawn) [OCH3, Ph-pOH, OCH2PO3Et2]
- pEC50 [10]: 6.97
- pEC50 [12]: 7.64
- pEC50 [14]: 7.32

Structure (SMILES): CCOP(=O)(COc1ccc(CC2C(O)C(O)C(Cc3ccc(OC)cc3)N(Cc3cccnc3)C(=O)N2Cc2cccnc2)cc1)OCC (stereo not drawn) [OCH3, m-pyridine, OCH2PO3Et2]
- pEC50 [10]: 6.01
- pEC50 [11]: 6.45
- pEC50 [12]: 6.97
- pEC50 [14]: 6.32
- pEC50 [15]: 6.12
- pEC50 [16]: 5.99

Structure (SMILES): CCOC(=O)C(C)NP(=O)(COc1ccc(C[C@@H]2[C@H](O)[C@@H](O)[C@@H](Cc3ccccc3)N(Cc3ccccc3)C(=O)N2Cc2ccccc2)cc1)Oc1ccccc1 (stereo partly drawn) [R=H, R1=Ph, R2=Mono-Ala-Et]
- EC50 [1]: 238 nM
- IC50 [2]: 5 nM
- EC50 [3]: 2850 nM
- EC50 [29]: 2450 nM
- EC50 [4]: 2940 nM
- EC50 [30]: 1950 nM
- EC50 [5]: 1250 nM
- IC50 [6]: 50 nM
- EC50 [7, 32]: 310 nM

Structure (SMILES): CCOP(=O)(COc1ccc(C[C@@H]2[C@H](O)[C@@H](O)[C@@H](Cc3ccccc3)N(Cc3cccc(N)c3)C(=O)N2Cc2cccc(N)c2)cc1)OCC [R=H, R1=Ph-mNH2, R2=OCh2PO3Et2]
- EC50 [1]: 16 nM
- EC50 [3]: 168 nM
- EC50 [4]: 328 nM
- EC50 [30]: 146 nM
- EC50 [5]: 46 nM
- EC50 [7, 32]: 65 nM

Structure (SMILES): CCOP(=O)(CCNC(=O)Oc1ccc(C[C@@H]2[C@H](O)[C@@H](O)[C@@H](Cc3ccc(OC)cc3)N(Cc3cccc(N)c3)C(=O)N2Cc2cccc(N)c2)cc1)OCC [R=OCH3, R1=Ph-mNH2, R2=OCONH(CH2)2PO3Et2]
- EC50 [1]: 77 nM
- EC50 [3]: 262 nM
- EC50 [29]: 215 nM
- EC50 [4]: 2260 nM
- EC50 [30]: 214 nM
- EC50 [5]: 184 nM

Structure (SMILES): CCOP(=O)(CNC(=O)Oc1ccc(C[C@@H]2[C@H](O)[C@@H](O)[C@@H](Cc3ccc(OC)cc3)N(Cc3cccc(N)c3)C(=O)N2Cc2cccc(N)c2)cc1)OCC [R=OCH3, R1=Ph-mNH2, R2=OCONH(CH2)PO3Et2]
- EC50 [1]: 68 nM
- IC50 [2]: 9.9 nM
- EC50 [3]: 223 nM
- EC50 [29]: 185 nM
- EC50 [4]: 2150 nM
- EC50 [30]: 203 nM
- EC50 [5]: 104 nM
- IC50 [6]: 85 nM
- EC50 [7, 32]: 58 nM

Structure (SMILES): CCOP(=O)(CCNC(=O)Oc1ccc(C[C@@H]2[C@H](O)[C@@H](O)[C@@H](Cc3ccc(OC)cc3)N(Cc3ccc(O)cc3)C(=O)N2Cc2ccc(O)cc2)cc1)OCC [R=OCH3, R1=Ph-pOH, R2=OCONH(CH2)2PO3Et2]
- EC50 [1]: 31 nM
- EC50 [29]: 55 nM
- EC50 [4]: 495 nM
- EC50 [30]: 51 nM
- EC50 [5]: 223 nM
- EC50 [7, 32]: 33 nM

Structure (SMILES): CCOP(=O)(COc1ccc(CC(NC(=O)OC2COC3OCCC23)C(O)CN(CC(C)C)S(=O)(=O)c2ccc(OC)cc2)cc1)OCC (stereo not drawn) [drawing 651 R1=OEt R2=OEt]
- pEC50 [31]: > 7.30
- CC50 [17]: 5000 to 50000 nM

Structure (SMILES): CCOC(=O)C(CC)OP(=O)(CCNCc1ccc(C[C@H](NC(=O)O[C@H]2CO[C@H]3OCC[C@H]32)[C@H](O)CN(CC(C)C)S(=O)(=O)c2ccc(OC)cc2)cc1)Oc1ccccc1 (stereo partly drawn) [drawing 662 R1=Ph R2=Hba-Et]
- pEC50 [31]: 6.30 to 7.30
- CC50 [17]: 5000 to 50000 nM

Structure (SMILES): CCOC(=O)C(C)OP(=O)(CCNCc1ccc(C[C@H](NC(=O)O[C@H]2CO[C@H]3OCC[C@H]32)[C@H](O)CN(CC(C)C)S(=O)(=O)c2ccc(OC)cc2)cc1)Oc1ccccc1 (stereo partly drawn) [drawing 662 R1=Ph R2=Lac-Et]
- pEC50 [31]: 6.30 to 7.30
- CC50 [17]: > 50000 nM

From patent publication US20060115815A1 (priority 2002, published 2006)
